{"source": "paper PMC7179685", "about": "“Iminosugars With Endoplasmic Reticulum α-Glucosidase Inhibitor Activity Inhibit ZIKV Replication and Reverse Cytopathogenicity in vitro” (Frontiers in Microbiology, 2020)", "key": {"Vero cells": {"test_system": "Vero cells", "assay": "Cytotoxicity, MTS cell viability assay in Vero cells", "format": "cell-based, African green monkey", "settings": "72 h post treatment; for metabolic activity (cytotoxicity, MTS): 1000 μM; for metabolic activity compared to vehicle control (cytotoxicity, MTS): 0.01 to 100 μM", "experimental": "(§1) A cell viability assay was used to evaluate both the cytotoxicity and antiviral abilities of the iminosugars with appropriate controls as previously described ([Fletcher et al., 2000]) using the CellTiter 96® AQueous One Solution Cell Proliferation Assay (MTS, Promega, Madison, WI, United States) following the manufacturer’s instructions. At 60–70% confluence, Vero cells and CHME3 cells were pretreated with iminosugars for 2 h and then infected with ZIKV according to the plate layout shown in Supplementary Figure S1. Four biological replicates were used to assess cytotoxicity, and six replicates were used to assess the antiviral ability of each iminosugar with concentrations ranging from 0.01 to 1000 μM or vehicle (sterile nuclease-free water). Cells treated with iminosugars or vehicle control were infected with ZIKV strain PRVABC59, IBH30656 or MEX 2-81 at a multiplicity of infection (MOI) of 1 in infection medium consisting of DMEM supplemented with 5% FBS and 1% antibiotic/antimycotic solution. The CHME3 infection medium was additionally supplemented with 0.1% non-essential amino acids (NEAA). At 72 h post-infection (hpi), MTS solution was added to the wells, and after 2 h, the optical density was measured at 490 nm using a microplate reader (ELx800; BioTek, Winooski, VT, United States). Previous studies have shown that ER α-glucosidase inhibitor, Celgosivir prevents DENV secretion in primary human macrophages with an EC50 of 5 μM and has CC50 greater than 1000 μM in MBDK cells ([Whitby et al., 2004]; [Sung et al., 2016])."}, "CHME3 cells": {"test_system": "CHME3 cells", "assay": "Cytotoxicity, MTS cell viability assay in CHME3 cells", "format": "cell-based, Human", "settings": "72 h post treatment; for metabolic activity (cytotoxicity, MTS): 1000 μM; for metabolic activity compared to vehicle control (cytotoxicity, MTS): 0.01 to 100 μM", "experimental": "as §1"}, "ZIKV PRVABC59 [1]": {"test_system": "ZIKV PRVABC59", "assay": "Virus yield reduction assay (qRT-PCR and TCID50) in Vero cells", "format": "cell-based, Zika virus", "settings": "1 μM, 48 hpi; for PRVABC59 ZIKV RNA in supernatant compared with vehicle control (qRT-PCR): MOI 0.5 and MOI 5, p ≤ 0.0318; for infectious PRVABC59 ZIKV titers (TCID50): MOI 0.5 and MOI 5, p ≤ 0.0433", "experimental": "(§2) Zika virus yield reduction following treatment with iminosugars was assessed by measuring the NS1 gene by a previously described quantitative reverse transcription-polymerase chain reaction (qRT-PCR) and infectious virus titration in Vero cells ([Reed and Muench, 1938]; [Goebel et al., 2016]). Vero and CHME3 cells pre-treated 1 μM of castanospermine, celgosivir or DNJ for 2 h and then were infected with PRVABC59 either at MOI 0.5 or 5 in infection medium. After 2 h of incubation with the virus, medium from cells was removed, cells were washed with phosphate buffered saline, and fresh infection medium containing 1 μM of castanospermine, celgosivir or DNJ was added to the wells. At 48 and 72 hpi, culture supernatants were harvested and stored at −80°C until use for viral RNA extraction. Viral RNA was extracted from 50 μl of sample using the MagMAX-96 Viral RNA Isolation Kit (Applied Biosystems, Foster City, CA, United States) on a MagMAX Express-96 Deep Well Magnetic Particle Processor (Applied Biosystems). The amount of ZIKV genomic RNA was measured by qRT-PCR using SuperScript® III Platinum One-Step qRT-PCR Kit on a 7500 Fast Real-Time PCR System (Applied Biosystems). The primers (F: 5′-[…]-3′, R: 5′-[…]-3′) and probe sequence (5′- FAM-TGCCCAACA/ZEN/CAAGGTGAAGCC TACCT-BHQ) were purchased from Integrated DNA Technologies (IDT; Coralville, IA, United States), and the qRT-PCR cycling conditions included an initial cDNA synthesis for 30 min at 50°C, followed by 2 min at 95°C and 45 cycles of 2-step cycling at 95°C for 15 s, then 55°C for 30 s ([Goebel et al., 2016]). The ZIKV copy numbers were quantified using a standard curve generated with serial dilutions of positive control ZIKV RNA standards derived from ZIKV with known TCID50 value. Cell culture supernatants were titrated for the infectious virus in Vero cells, and titer was expressed as TCID50 calculated using the Reed-Muench method ([Reed and Muench, 1938])."}, "ZIKV PRVABC59 [2]": {"test_system": "ZIKV PRVABC59", "assay": "Virus yield reduction assay (qRT-PCR and TCID50) in CHME3 cells", "format": "cell-based, Zika virus", "settings": "1 μM, 48 hpi", "experimental": "as §2"}, "ZIKV strain PRVABC59 [3]": {"test_system": "ZIKV strain PRVABC59", "assay": "Antiviral screening assay (MTS cell viability after infection) in Vero cells", "format": "cell-based, Zika virus", "settings": "for ZIKV-induced cell death (MTS): Vero cells, PRVABC59, MOI 1, 72 hpi", "experimental": "as §1"}, "ZIKV strain PRVABC59 [4]": {"test_system": "ZIKV strain PRVABC59", "assay": "Antiviral screening assay (MTS cell viability after infection) in CHME3 cells", "format": "cell-based, Zika virus", "settings": "for ZIKV-induced cell death (MTS): PRVABC59, MOI 1, 72 hpi", "experimental": "as §1"}, "ZIKV": {"test_system": "ZIKV", "design": "method as in Ma et al., 2018", "settings": "ref Ma et al., 2018, cited from earlier work"}}, "note": "Counter-ions that a name gives are not always drawn."}
{"smiles": "O[C@H]1[C@H](O)[C@@H](O)CN2CC[C@H](O)[C@H]12", "note": "[castanospermine]", "values": [{"measurement": "metabolic activity (cytotoxicity, MTS)", "setting": "Vero cells", "result": "decrease in metabolic activity"}, {"measurement": "metabolic activity compared to vehicle control (cytotoxicity, MTS)", "setting": "Vero cells", "result": "No reduction in metabolic activity"}, {"measurement": "metabolic activity (cytotoxicity, MTS)", "setting": "CHME3 cells", "result": "decrease in metabolic activity"}, {"measurement": "metabolic activity compared to vehicle control (cytotoxicity, MTS)", "setting": "CHME3 cells", "result": "No reduction in metabolic activity"}, {"measurement": "PRVABC59 ZIKV RNA in supernatant compared with vehicle control (qRT-PCR)", "setting": "ZIKV PRVABC59 [1]", "result": "Significant reductions"}, {"measurement": "infectious PRVABC59 ZIKV titers (TCID50)", "setting": "ZIKV PRVABC59 [1]", "result": "statistically significant reduction"}, {"measurement": "infectious PRVABC59 ZIKV titers (TCID50)", "setting": "ZIKV PRVABC59 [2]; MOI 0.5", "result": "not statistically significant"}, {"measurement": "PRVABC59 ZIKV RNA in supernatant, reduction vs control cells (qRT-PCR)", "setting": "ZIKV PRVABC59 [2]; MOI 5", "result": "not significant"}, {"measurement": "infectious PRVABC59 ZIKV titers (TCID50)", "setting": "ZIKV PRVABC59 [2]; MOI 5, p ≤ 0.0433", "result": "statistically significant reduction"}, {"measurement": "ZIKV-induced cell death (MTS)", "setting": "ZIKV strain PRVABC59 [3]", "result": "reduce ZIKV-induced cell death"}, {"measurement": "cell viability following ZIKV infection", "setting": "ZIKV strain PRVABC59 [4]; CHME3 cells, MOI 1, 10 μM required", "result": 90, "unit": "%"}, {"measurement": "ZIKV-induced cell death (MTS)", "setting": "ZIKV strain PRVABC59 [4]; CHME3 cells", "result": "reduce ZIKV-induced cell death"}]}
{"smiles": "CC(C)(C)NC(=O)N(CCCCCCN1C[C@H](O)[C@@H](O)[C@H](O)[C@H]1CO)C1CCCCC1", "note": "[IHVR-19029]", "values": [{"measurement": "ZIKV RNA production", "setting": "ZIKV; HEK293 embryonic kidney cells, MOI 0.1, 0.1 μM, the lowest concentration tested", "result": "decreased ZIKV RNA production"}, {"measurement": "ZIKV viral replication", "setting": "ZIKV; embryonic kidney cells", "result": "reduced"}]}
{"smiles": "OC[C@H]1NC[C@H](O)[C@@H](O)[C@@H]1O", "note": "[DNJ, 1-deoxynojirimycin hydrochloride]", "values": [{"measurement": "metabolic activity (cytotoxicity, MTS)", "setting": "Vero cells", "result": "decrease in metabolic activity"}, {"measurement": "metabolic activity compared to vehicle control (cytotoxicity, MTS)", "setting": "Vero cells", "result": "No reduction in metabolic activity"}, {"measurement": "metabolic activity (cytotoxicity, MTS)", "setting": "CHME3 cells", "result": "decrease in metabolic activity"}, {"measurement": "metabolic activity compared to vehicle control (cytotoxicity, MTS)", "setting": "CHME3 cells", "result": "No reduction in metabolic activity"}, {"measurement": "PRVABC59 ZIKV RNA in supernatant compared with vehicle control (qRT-PCR)", "setting": "ZIKV PRVABC59 [1]", "result": "Significant reductions"}, {"measurement": "infectious PRVABC59 ZIKV titers (TCID50)", "setting": "ZIKV PRVABC59 [1]", "result": "statistically significant reduction"}, {"measurement": "infectious PRVABC59 ZIKV titers (TCID50)", "setting": "ZIKV PRVABC59 [2]; MOI 0.5", "result": "statistically significant reduction"}, {"measurement": "infectious PRVABC59 ZIKV titers (TCID50)", "setting": "ZIKV PRVABC59 [2]; MOI 5, p ≤ 0.0433", "result": "statistically significant reduction"}, {"measurement": "ZIKV-induced cell death (MTS)", "setting": "ZIKV strain PRVABC59 [3]", "result": "reduce ZIKV-induced cell death"}, {"measurement": "viability at 0.01 µM", "setting": "ZIKV strain PRVABC59 [3]; Zika virus, Vero, read-out: cell viability following ZIKV infection", "result": "> 90", "unit": "%"}, {"measurement": "ZIKV-induced cell death (MTS)", "setting": "ZIKV strain PRVABC59 [4]; CHME3 cells", "result": "reduce ZIKV-induced cell death"}, {"measurement": "viability at 0.01 µM", "setting": "ZIKV strain PRVABC59 [4]; Zika virus, read-out: cell viability following ZIKV infection", "result": "> 90", "unit": "%"}]}
